Legend:
[1] = test system: Klebsiella pneumoniae; test: EPA Non-Food Contact Sanitizer Test DIS/TSS-10, glass slide, 5% fetal bovine serum; assay type: cell-based; settings: K. pneumoniae; dilute aqueous acidic solution; 1-minute contact
Description: (§1) Low-residue hard surface cleaner formulations of the present invention were evaluated for sanitizing efficacy under the United States Environmental Protection Agency's Non-Food Contact Sanitizer Test, DIS/TSS-10 (Jan. 7, 1982). As noted in specific examples, a 30 second or 1 minute contact time using a glass slide test surface was used. As these formulas are to be used as one-step antimicrobial cleaners, fetal bovine serum was added to the innoculum at a concentration of 5.0 percent by weight to simulate an organic soil load such as one would expect to find on a typical non-food contact surface prior to cleaning.
(§2) Efficacy of the test solutions was evaluated versus Staphylococcus aureus (S. aureus), Klebsiella pneumoniae (K. pneumoniae), and Salmonella choleraesius (S. choleraesius). As a control, parallel tests were conducted using a 0.01 percent solution of Triton X-100 (isooctylphenoxyl-polyethoxyethanol with 9-10 moles of oxyethylene) in an identical manner as the test solutions. The results for the test solutions were compared to the control and are reported as “Log Kill” of the test organism versus the control counts in Table 2. A “Log Kill” of 5 means that 99.999 percent of the organism has been killed.

[2] = test system: Staphylococcus aureus; test: as above; assay type: cell-based; settings: S. aureus; dilute aqueous acidic solution; 1-minute contact
Description: as §1, §2

[3] = cited from earlier work

| Structure (SMILES) | antimicrobial synergy with low levels of organocarboxylic acids [1] | antimicrobial synergy with low levels of organocarboxylic acids [2] | Solubility in water at 20-25° C. [3] | miscibility in water [3] |
| --- | --- | --- | --- | --- |
| OCc1ccccc1 [BA, Benzyl Alcohol] | enhanced biocidal efficacy | enhanced biocidal efficacy | 3.8% | – |
| CCOCCOCCO [Carbitol, Diethylene Glycol Ethyl Ether] | no significant antimicrobial synergy | no significant antimicrobial synergy | Infinite | completely miscible |
| CCCCCCOCCOCCO [DEGHE, Diethylene Glycol n-Hexyl Ether] | enhanced biocidal efficacy | enhanced biocidal efficacy | – | – |
| COC(C)COC(C)CO (centres unmarked) [DPM, Dipropylene Glycol Methyl Ether] | no significant antimicrobial synergy | no significant antimicrobial synergy | Infinite | completely miscible |
| CCCCCOCCO [EGPE, Ethylene Glycol n-Pentyl Ether] | enhanced biocidal efficacy | enhanced biocidal efficacy | 3.4% | – |
| OCCOc1ccccc1 [Eph, Ethylene Glycol Phenyl Ether] | enhanced biocidal efficacy | enhanced biocidal efficacy | 2.3% | – |
| CC(C)O [IPA, Iso-propanol] | no significant antimicrobial synergy | no significant antimicrobial synergy | Infinite | completely miscible |
